# Reference: patent US8937096B2, “Use of benzo-fused heterocyle sulfamide derivatives for the treatment of mania and bipolar disorder” (priority 2005, dated 2015)
# Assays:
# Wistar rats = test: Chronic Mild Stress Model (Chronic); assay type: in vivo, rat; details: stressed animals; i.p. once daily
# Text: In the chronic mild stress (CMS) model rats subjected to a variety of mild stressors for a prolonged period of time show, among other behavioral, biochemical and physiological impairments, a substantial decrease in their responsiveness to rewarding stimuli. This deficit is usually monitored by a decrease in the consumption of the 1% sucrose solution, but can also be seen in other tests, such as place preference conditioning or intracranial self-stimulation. Since the subsensitivity to reward appears to reflect anhedonia (inability to experience pleasure), which is a core symptom of major depressive disorders, the CMS procedure may serve as a suitable research tool in studies into the mechanisms of antidepressant action.
# Male Wistar rats were brought into the laboratory two months before the start of the experiment. Except as described below, the animals were singly housed with food and water freely available, and were maintained on a 12-h light/dark and in a constant temperature (22±2° C.) and humidity (50±5%) conditions.
# The animals were first trained to consume a 1% sucrose solution; training consisted of eight 1 h baseline tests in which sucrose was presented, in the home cage, following 14 h food and water deprivation; the sucrose intake was measured by weighing pre-weighed bottles containing the sucrose solution, at the end of the test. Subsequently, sucrose consumption was monitored, under similar conditions, at weekly intervals throughout the whole experiment.
# On the basis of their sucrose intakes in the final baseline test, the animals were divided into two matched groups. One group of animals was subjected to the chronic mild stress procedure for a period of 7 consecutive weeks. […]
# All results obtained in this study were analyzed by multiple analyses of variance with three between-subjects factors (stress/control, drug treatments and successive sucrose tests). […]
# [1] = tested on: stressed and non-stressed animals; test: Resident/Intruder Assay (Chronic Social Stress Assay); assay type: in vivo; parameters: Locomotor Mean ± SD / Rearing Mean ± SD / Sniffing Down Mean ± SD / Sniffing Up Mean ± SD: unit not given here; details: 10 mg/kg p.o.
# Text: The behavioral resident/intruder assay is used to screen compounds for anti-depressant-like activity.
# [2] = tested on: hippocampal kindled seizures; details: rat, in vivo; cited from earlier work
# [3] = tested on: amygdala kindled seizures; details: i.p.; cited from earlier work
# [4] = tested on: hippocampal kindled seizures; test: Rat Hippocampal Kindling Test (Interruption of Kindled State); assay type: in vivo; details: reference drugs; suppression at doses associated with toxicity
# Protocol: In the present rapid hippocampal kindling model adult male Sprague-Dawley rats (300-400 g) were surgically implanted with bipolar electrodes placed in the hippocampus. […] One week later, the rats received 2-3 supra-threshold stimulations delivered every 30 min before treatment with test compound, to ensure stability of the behavioral seizure stage and after-discharge duration. Fifteen minutes after the last stimulation, a single dose of vehicle or test compound was administered i.p. (intraperitoneally). After 15 min, each rat was then stimulated every 30 min for 3 to 4 h. After each stimulation, individual seizure scores and after-discharge durations were recorded. The group mean±SEM were calculated for each parameter. Eight rats per dose and a minimum of four doses were used to establish an ED50 value. Efficacy was measured as the ability of a compound to modify the seizure score (severity of spread) and after-discharge duration (ADD; excitability) of the generalized seizures.
# Thus, according to the theories presented in current literature (Ghaemi, S. N., Boiman, E. E., and Goodwin, F. K., Soc. of Bio. Psychiatry, (1999), vol. 45, pp 137-144; Stoll, A. L., and Severus, W. E., Harvard Rev. Psychiatry, July/August (1996), Vol. 4, No. 2, pp 77-89) a decrease in seizure score and/or ADD may also be predictive of the ability of a test compound to treat the cycling associated with bipolar disorder.
# [5] = Median toxic dose (TD50) / toxic doses of Compound #8 and reference drugs; details: rat, in vivo
smiles,measurement,setting,value
NS(=O)(=O)NCC1CCc2ccccc2O1 (stereo not drawn),melting point,,100 to 101 °C
"CN(C)CCCN1c2ccccc2CCc2ccccc21 [Imipramine, imipramine, reference compound]",treatment time after which increases in sucrose intake in stressed animals reached statistical significance vs Week 0,Wistar rats,four weeks
same,Forced Swim Test: Immobility during 5 min: Week 5 Mean ± SD,[1]; non-stressed,125.3 ± 50.1
same,Sucrose Intake Mean ± SD Week 3,[1]; non-stressed,87.9 ± 2.7
same,Sucrose Intake Mean ± SD Week 4,[1]; non-stressed,89.7 ± 5.3
same,Sucrose Intake Mean ± SD Week 5,[1]; non-stressed,91.0 ± 3.7
same,Locomotor Mean ± SD,"[1]; non-stressed, week 1",8162.8 ± 929.9
same,Rearing Mean ± SD,"[1]; non-stressed, week 1",51.5 ± 12.6
same,Sniffing Down Mean ± SD,"[1]; non-stressed, week 1",25.8 ± 4.9
same,Rearing Mean ± SD,"[1]; non-stressed, week 5",42.1 ± 2.9
same,Sniffing Down Mean ± SD,"[1]; non-stressed, week 5",26.4 ± 5.2
same,Sniffing Up Mean ± SD,"[1]; non-stressed, week 5",37.5 ± 2.1
same,Forced Swim Test: Immobility during 5 min: Week 5 Mean ± SD,[1]; stressed,157.5 ± 71.6
same,Sucrose Intake Mean ± SD Week 3,[1]; stressed,70.5 ± 19.5
same,Sucrose Intake Mean ± SD Week 4,[1]; stressed,78.3 ± 15.1
same,Sucrose Intake Mean ± SD Week 5,[1]; stressed,73.6 ± 19.4
same,Locomotor Mean ± SD,"[1]; stressed, week 1",6037.8 ± 1382.8
same,Rearing Mean ± SD,"[1]; stressed, week 1",30 ± 9.5
same,Sniffing Down Mean ± SD,"[1]; stressed, week 1",14.4 ± 4.4
same,Sniffing Up Mean ± SD,"[1]; stressed, week 1",27.5 ± 7.9
same,Locomotor Mean ± SD,"[1]; stressed, week 5",5642.8 ± 998.6
same,Rearing Mean ± SD,"[1]; stressed, week 5",27.8 ± 7.4
same,Sniffing Down Mean ± SD,"[1]; stressed, week 5",17.3 ± 3.4
same,Sniffing Up Mean ± SD,"[1]; stressed, week 5",24.3 ± 5.1
Nc1nnc(-c2cccc(Cl)c2Cl)c(N)n1 [lamotrigine],protection against hippocampal kindled seizures,[2],unable to protect
same,ADD reduced by,[3],62%
same,ED50 (amygdala kindled seizures),[3],25 mg/kg
same,amygdala kindled seizure score,[3],~2
"CCCC(CCC)C(=O)O [Valproic acid, reference compound]",seizure activity in the hippocampal kindling model,[4],significantly suppressed seizure activity
same,toxic doses,[5],> 300 mg/kg
